# Test results from EP3810127B1, “USE OF MILBEMYCIN OXIME AGAINST SEA LICE ON FISH” (Pharmaq AS, priority 2018, dated 2019).
# Like-named read-outs stand apart in the source and are kept apart here.
# Experiments:
# sea lice [1] = conditions: injectable composition, cited from earlier work
# sea lice [2] = conditions: cited from earlier work
# [3] = system: adult reduced sensitivity lice; experiment: in-vitro 1 hour exposure of adult lice in sea water; design: species or system salmon lice; conditions: exposed 1 hour, 48 hours post-exposure
# salmon lice = conditions: one hour bath on Day 1, lice counted on Day 3
# [4] = system: adult stages of L. salmonis; experiment: in-vivo bath exposure of Atlantic salmon infested with adult lice; conditions: one hour bath, female lice counted on Day 3
# Method: In a separate in-vivo study, Atlantic salmon infested with adult stages of L. salmonis were housed in a 500L tank with sea water at 12°C before drug exposure. Fish were randomly extracted from the holding tank and distributed to the treatment containers (n=14/container). […] Fish were then transferred to observation tanks. Fish were dosed with 500ppb, 250ppb, 125ppb, and 62.5ppb milbemycin oxime. […] On Day 3, fish were terminated and the number of female salmon lice were counted on each of the fish. Milbemycin oxime was 100% efficacious against the sea lice at all dose levels.
# [5] = system: preadult salmon lice with reduced sensitivity; experiment: in-vitro 1 hour exposure of preadult lice in sea water
# [6] = system: copepodids from salmon lice with reduced sensitivity; experiment: in-vitro 1 hour exposure of copepodids in sea water; conditions: exposed 1 hour, 96 hours post-exposure
molecule,measurement,setting,value
O=C(NC(=O)c1c(F)cccc1F)Nc1cc(Cl)c(OC(F)(F)C(F)F)c(Cl)c1 [hexaflumuron],efficacy against sea lice,sea lice [1]; 50mg/kg,provided efficacy
23(S)-t-butyloxyimino-25(S)-t-butyl milbemycin X [VS55759],efficacious against sea lice,sea lice [2]; 0.1ppm (100ppb) in a bath solution,efficacious
same,effective against sea lice,"sea lice [2]; 100ppb dose, immersion",100%
milbemycin oxime,efficacy against sea lice,sea lice [1]; dose of 0.5mg/kg,not efficacious
same,moribund rate,[3]; 2ppb,82%
same,state of adult lice,[3]; 10ppb,all dead or moribund
same,state of adult lice,[3]; 25ppb,all dead or moribund
same,efficacious against adult sea lice,salmon lice; 7.8ppb,100%
same,Efficacy,"salmon lice; 15.6ppb, remaining living lice loosely attached to the caudal fin",66.6%
same,efficacious against adult sea lice,salmon lice; 31.3ppb,100%
same,efficacious against adult sea lice,salmon lice; 62.5ppb,100%
same,efficacious against the sea lice,[4]; 62.5ppb,100%
same,efficacious against the sea lice,[4]; 125ppb,100%
same,efficacious against the sea lice,[4]; 250ppb,100%
same,efficacious against the sea lice,[4]; 500ppb,100%
same,state of preadult lice,"[5]; 5ppb, exposed 1 hour, 48 hours post-exposure",all were moribund
same,more effective at killing sea lice than VS55759,[5]; milbemycin oxime at 5ppb compared with VS55759 at 50ppb (60% morbidity),at least 10 x
same,state of copepodids,[6]; 12.5ppb,moribund
same,state of copepodids,[6]; 25ppb,moribund
same,state of copepodids,[6]; 50ppb,moribund
O=C(NC(=O)c1c(F)cccc1F)Nc1cc(Cl)c(OC(F)(F)C(F)C(F)(F)F)cc1Cl (stereo not drawn) [lufenuron],efficacy against sea lice,sea lice [1]; 50mg/kg,provided efficacy
